Assay results published in PubChem BioAssay AID743155 (The Scripps Research Institute Molecular Screening Center, 2013).
Activity calls are given as the source filed them. No rule for the calls is given here.

Tested on: Jurkat cells cytotoxicity, ATP luminescence
Experiment: cytotoxicity in Jurkat T cells, late-stage follow-up, cytotoxicity control for T. brucei MetRS inhibitor project, cell-based, luminescence, human T lymphocytes, Round001 (AID 743155)

COc1ccc(CCN(C(=S)Nc2ccccc2)C2CC(=O)N(c3ccc(Cl)cc3)C2=O)cc1 (centres undefined)
IC50: 27.2 µM (inactive)

COc1ccccc1NC(=O)CSc1nnc2c(n1)[nH]c1ccc(C)cc12
IC50: 47.1 µM (inactive)

O=C(Cn1cc(C(=O)C(=O)N2CCCC2)c2ccccc21)Nc1ccccc1
IC50: > 83.3 µM (inactive)

CC(=O)c1cn(CC(=O)Nc2cccc(C(F)(F)F)c2)c2ccccc12
IC50: > 27.8 µM (inactive)

CCN(CC)C(=O)C(=O)c1cn(CC(=O)N2CCCc3ccccc32)c2ccccc12
IC50: > 83.3 µM (inactive)

CCN(CC)C(=O)C(=O)c1cn(CC(=O)N(CC)c2ccccc2)c2ccccc12
IC50: > 27.8 µM (inactive)

O=C(NCCc1nc2ccccc2[nH]1)c1ccc(Cl)c(Cl)c1
IC50: > 83.3 µM (inactive)

O=C(Cn1cc(C(=O)C(=O)N2CCOCC2)c2ccccc21)NCC1CCCO1 (centres undefined)
IC50: > 83.3 µM (inactive)

CCN(C(=O)Cn1cc(C(=O)C(=O)N2CCOCC2)c2ccccc21)c1ccccc1
IC50: > 83.3 µM (inactive)

CCC(=O)c1cn(CC(=O)Nc2cccc(C(F)(F)F)c2)c2ccccc12
IC50: > 27.8 µM (inactive)

CCN(CC)C(=O)C(=O)c1cn(CC(=O)Nc2cccc(OC)c2)c2ccccc12
IC50: > 27.8 µM (inactive)

Cc1ccc(CNC(=O)CSc2nnc3c(n2)[nH]c2ccc(C)cc23)cc1
IC50: > 27.8 µM (inactive)

Cn1c(CCNC(=O)c2ccc(Cl)cc2)nc2ccccc21
IC50: > 27.8 µM (inactive)

CNC(=S)N(CCc1ccccc1)C1CC(=O)N(c2ccc(Br)cc2)C1=O (centres undefined)
IC50: > 27.8 µM (inactive)

COCCc1nc2ccc(C(=O)NCCc3nc4ccc(OC)cc4[nH]3)cc2o1
IC50: > 27.8 µM (inactive)

CC(=O)N(CCc1ccccc1)C1CC(=O)N(c2ccc(Cl)cc2)C1=O (centres undefined)
IC50: > 27.8 µM (inactive)

Cc1cccc(NC(=O)C2CC(=O)n3c(nc4ccccc43)N2)c1 (centres undefined)
IC50: > 27.8 µM (inactive)

COc1ccccc1NC(=O)Cn1cc(C(=O)C(=O)N2CCOCC2)c2ccccc21
IC50: > 83.3 µM (inactive)

CCN(CC)C(=O)C(=O)c1cn(CC(=O)Nc2cccc(C(F)(F)F)c2)c2ccccc12
IC50: 38 µM (inactive)

COc1ccc(NC(=O)C2CC(=O)n3c(nc4ccccc43)N2)cc1 (centres undefined)
IC50: > 83.3 µM (inactive)

O=C(CSC1CC(=O)N(c2cccc(Cl)c2)C1=O)Nc1ccc(Br)cc1 (centres undefined)
IC50: > 27.8 µM (inactive)

Cc1ccc(C(=O)NCCc2nc3ccccc3[nH]2)cc1[N+](=O)[O-]
IC50: > 27.8 µM (inactive)

O=C(NCCc1nc2ccccc2[nH]1)c1c(F)cccc1F
IC50: > 83.3 µM (inactive)

O=C(Cn1cc(C(=O)C(=O)N2CCOCC2)c2ccccc21)NCc1ccccc1
IC50: > 83.3 µM (inactive)

O=C(Cn1cc(C(=O)c2ccco2)c2ccccc21)Nc1cccc(C(F)(F)F)c1
IC50: 74 µM (inactive)

COc1ccc(CCN(C(=O)c2cccc(F)c2)C2CC(=O)N(c3ccc(Br)cc3)C2=O)cc1 (centres undefined)
IC50: > 83.3 µM (inactive)

CCc1ccc2[nH]c3nc(SCC(=O)NCc4cccc(OC)c4)nnc3c2c1
IC50: > 27.8 µM (inactive)

Cc1cccc2[nH]c(C3CCCN(C(=O)c4cccc5cccnc45)C3)nc12 (centres undefined)
IC50: > 27.8 µM (inactive)

O=C(NCCc1nc2ccccc2[nH]1)c1ccc(Cl)cc1
IC50: > 27.8 µM (inactive)

Cc1cc2cc(C(=O)N3CCCC(c4nc5ccccc5[nH]4)C3)ccc2o1 (centres undefined)
IC50: > 27.8 µM (inactive)

CCCCn1c(CCNC(=O)c2ccc(F)cc2)nc2ccccc21
IC50: > 27.8 µM (inactive)

COc1ccc(NC(=O)CSc2nnc3c4cc(C)ccc4n(C)c3n2)cc1
IC50: > 83.3 µM (inactive)

CC1Cc2ccccc2N1C(=O)Cn1cc(C(=O)C(=O)N2CCOCC2)c2ccccc21 (centres undefined)
IC50: > 83.3 µM (inactive)

O=C(Nc1ccc(F)c(Cl)c1)C1CC(=O)n2c(nc3ccccc32)N1 (centres undefined)
IC50: > 83.3 µM (inactive)

O=C(CSc1nnc2c(n1)[nH]c1ccc(Br)cc12)NCc1ccccc1
IC50: > 27.8 µM (inactive)

O=C(NCCc1nc2ccccc2[nH]1)c1ccc(Cl)cc1Cl
IC50: > 27.8 µM (inactive)

CCc1ccc2c(c1)c1nnc(SCC(=O)Nc3ccc4c(c3)OCO4)nc1n2C
IC50: 81.1 µM (inactive)

COc1cccc(NC(=O)C2CC(=O)n3c(nc4ccccc43)N2)c1 (centres undefined)
IC50: > 83.3 µM (inactive)

Cc1cccc(C(=O)NCCc2nc3ccccc3n2CCOc2ccccc2)c1
IC50: > 27.8 µM (inactive)

O=C(Cn1cc(C(=O)C2CC2)c2ccccc21)Nc1cccc(C(F)(F)F)c1
IC50: > 27.8 µM (inactive)

CCN(CCc1nc2ccc(C)cc2[nH]1)C(=O)c1ccc2ncccc2c1
IC50: > 83.3 µM (inactive)

CC(C)c1nc2ccc(C(=O)N(C)CCc3nc4ccc(F)cc4[nH]3)cc2o1
IC50: > 83.3 µM (inactive)

Cc1ccc2[nH]c3nc(SCC(=O)Nc4ccc(C(F)(F)F)cc4)nnc3c2c1
IC50: > 83.3 µM (inactive)

Cc1cccc2[nH]c(CCN(C)C(=O)c3cccc(C4CCNC4)c3)nc12 (centres undefined)
IC50: > 83.3 µM (inactive)

O=C(Cn1cc(C(=O)c2ccccc2)c2ccccc21)Nc1cccc(C(F)(F)F)c1
IC50: 55.5 µM (inactive)

CC(=O)N(CCc1ccccc1)C1CC(=O)N(c2ccc(Br)cc2)C1=O (centres undefined)
IC50: > 27.8 µM (inactive)

CCN(CC)C(=O)C(=O)c1cn(CC(=O)Nc2ccccc2OC)c2ccccc12
IC50: > 83.3 µM (inactive)

O=C(Cn1cc(C(=O)COc2ccccc2)c2ccccc21)Nc1cccc(C(F)(F)F)c1
IC50: > 27.8 µM (inactive)

O=C1CC(NCCc2ccccc2)C(=O)N1c1ccc(Br)cc1 (centres undefined)
IC50: > 83.3 µM (inactive)
